Data published in US9499553B2 (CHUGAI SEIYAKU KABUSHIKI KAISHA, priority 2013, dated 2016).
pIC50: −log10 of the molar value.

Legend:
[1] = system: chronic kidney disease model rat; assay: Suppressive effect on calcium deposition in blood vessel of chronic kidney disease model rat; format: in vivo; details: thoracic aorta, dosage 0.3% in feed, 14 weeks
Procedure: Test Example 9: Suppressive Effect on Calcium Deposition in Blood Vessel of Chronic Kidney Disease Model Rat
From the same animal as that in Test Example 7, the thoracic aorta was collected 14 weeks after the start of administration of the test compound, and the dry weight was measured. The measured dry thoracic aorta was subjected to ashing and dissolved in a certain amount of hydrochloric acid, and then the calcium concentration in the solution was measured using OCPC method to determine the amount of calcium per gram of the thoracic aorta dry weight (Katsumata K, Kusano K, Hirata M, Tsunemi K, Nagano N, Burke S K, Fukushima N. Sevelamer hydrochloride prevents ectopic calcification and renal osteodystrophy in chronic renal failure rats. Kidney Int. 2003 August; 64(2): 441-450.) The rate of suppression of calcium deposition in blood vessel was determined according to the following expression: Rate (%) of suppression of calcium deposition in blood vessel=(1−[(Amount of calcium per gram of dried blood vessel of the test compound-treated pathological group)−(Amount of calcium per gram of dried blood vessel of the normal group)]/[(Amount of calcium per gram of dried blood vessel of the reference pathological group)−(Amount of calcium per gram of dried blood vessel of the normal group)])×100

human NaPi-IIb = target: T1, human NaPi-IIb (Homo sapiens, UniProt O95436); assay: Inhibitory effect on 33PO4 uptake into human NaPi-IIb-expressing CHO cells; format: cell-based; details: read-out: IC50
T1 construct: expressed in transfected cells
T1 sequence (O95436 1-690): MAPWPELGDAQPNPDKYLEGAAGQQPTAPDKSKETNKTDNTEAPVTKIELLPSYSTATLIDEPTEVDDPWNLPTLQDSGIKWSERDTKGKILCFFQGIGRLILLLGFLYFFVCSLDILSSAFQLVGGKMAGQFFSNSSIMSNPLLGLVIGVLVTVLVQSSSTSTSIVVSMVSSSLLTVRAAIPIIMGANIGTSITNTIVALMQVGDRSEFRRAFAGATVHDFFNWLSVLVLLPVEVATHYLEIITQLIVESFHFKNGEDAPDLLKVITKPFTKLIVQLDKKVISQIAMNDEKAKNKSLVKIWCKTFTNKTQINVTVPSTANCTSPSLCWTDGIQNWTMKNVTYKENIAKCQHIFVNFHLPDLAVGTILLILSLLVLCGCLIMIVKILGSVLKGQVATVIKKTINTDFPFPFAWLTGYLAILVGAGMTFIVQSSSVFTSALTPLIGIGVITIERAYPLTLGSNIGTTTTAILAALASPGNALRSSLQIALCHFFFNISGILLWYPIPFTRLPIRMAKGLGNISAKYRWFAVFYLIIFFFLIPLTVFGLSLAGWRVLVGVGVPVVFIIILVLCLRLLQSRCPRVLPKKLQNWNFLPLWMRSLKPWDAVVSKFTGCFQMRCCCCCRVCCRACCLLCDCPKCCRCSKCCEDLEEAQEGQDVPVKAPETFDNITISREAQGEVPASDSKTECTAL
How it was run: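 Stable human NaPi-IIb CHO line (G418-selected), plated and cultured overnight; ³³PO4 added in buffer A and uptake run at room temperature. Cells washed with ice-cold buffer A, then uptake counted by liquid scintillation.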

pIC50 (human NaPi-IIb): 5.05
Compound: COCCN(C)CCOc1ccc(CN2C(=O)C(C(=O)Nc3ccc(C(F)(F)F)cc3-c3cc(C(F)(F)F)ncn3)=C(O)C3(CCCC3)N2C)c(F)c1F [Example 14, 7-[[2,3-Difluoro-4-[2-[2-methoxyethyl(methyl)amino]ethoxy]phenyl]methyl]-10-hydroxy-6-methyl-8-oxo-N-[4-(trifluoromethyl)-2-[6-(trifluoromethyl)pyrimidin-4-yl]phenyl]-6,7-diazaspiro[4.5]dec-9-ene-9-carboxamide]
Rate of inhibition (%) (suppression of calcium deposition in blood vessel) [1]: 100% 100%
